From patent US20220054513A1, “COMBINATION COMPOSITIONS COMPRISING A BETA-LACTAMASE INHIBITOR” (VenatoRx Pharmaceuticals, Inc., priority 2018, published 2022)

Test system: Acinetobacter baumannii-calcoaceticus species complex clinical isolates
Experiment: MIC of triple combinations (Compound 1, sulbactam, meropenem or cefepime), 141 clinical isolates
Format: cell-based
Conditions: Acinetobacter
Excerpt: For a more comprehensive assessment of the ability of test compounds to potentiate sulbactam in triple combinations with β-lactams additional MIC assays were utilized.

CC1(C)[C@H](C(=O)O)N2C(=O)C[C@H]2S1(=O)=O [SUL, Sulbactam]
32 µg/mL: MIC (strain 993131, Cmpd 1 at 4 μg/mL in combinations) | MIC (strain 993139, Cmpd 1 at 4 μg/mL in combinations) | MIC (strain 996707, Cmpd 1 at 4 μg/mL in combinations) | MIC (strain 996869, Cmpd 1 at 4 μg/mL in combinations) | MIC (strain 997574, Cmpd 1 at 4 μg/mL in combinations) | MIC (strain 998907, Cmpd 1 at 4 μg/mL in combinations) | MIC (strain 999343, Cmpd 1 at 4 μg/mL in combinations) | MIC (strain 1001007, Cmpd 1 at 4 μg/mL in combinations) | MIC (strain 1001143, Cmpd 1 at 4 μg/mL in combinations) | MIC (strain 1003787, Cmpd 1 at 4 μg/mL in combinations) | MIC (strain 1005265, Cmpd 1 at 4 μg/mL in combinations) | MIC (strain 1007660, Cmpd 1 at 4 μg/mL in combinations) | MIC (strain 1008510, Cmpd 1 at 4 μg/mL in combinations) | MIC (strain 1008730, Cmpd 1 at 4 μg/mL in combinations) | MIC (strain 1010383, Cmpd 1 at 4 μg/mL in combinations) | MIC (strain 1014143, Cmpd 1 at 4 μg/mL in combinations) | MIC (strain 1014866, Cmpd 1 at 4 μg/mL in combinations) | MIC (strain 1014878, Cmpd 1 at 4 μg/mL in combinations) | MIC (strain 1014890, Cmpd 1 at 4 μg/mL in combinations) | MIC (strain 1016836, Cmpd 1 at 4 μg/mL in combinations) | MIC (strain 1017679, Cmpd 1 at 4 μg/mL in combinations) | MIC (strain 1018804, Cmpd 1 at 4 μg/mL in combinations) | MIC (strain 1018807, Cmpd 1 at 4 μg/mL in combinations) | MIC (strain 1023074, Cmpd 1 at 4 μg/mL in combinations) | MIC (strain 1024119, Cmpd 1 at 4 μg/mL in combinations) | MIC (strain 1027590, Cmpd 1 at 4 μg/mL in combinations) | MIC (strain 1029770, Cmpd 1 at 4 μg/mL in combinations) | MIC (strain 1030945, Cmpd 1 at 4 μg/mL in combinations) | MIC (strain 1031136, Cmpd 1 at 4 μg/mL in combinations) | MIC (strain 1031211, Cmpd 1 at 4 μg/mL in combinations) | MIC (strain 1031238, Cmpd 1 at 4 μg/mL in combinations) | MIC (strain 1031566, Cmpd 1 at 4 μg/mL in combinations) | MIC (strain 1034048, Cmpd 1 at 4 μg/mL in combinations) | MIC (strain 1034880, Cmpd 1 at 4 μg/mL in combinations) | MIC (strain 1034912, Cmpd 1 at 4 μg/mL in combinations) | MIC (strain 1034913, Cmpd 1 at 4 μg/mL in combinations) | MIC (strain 1034925, Cmpd 1 at 4 μg/mL in combinations) | MIC (strain 1034951, Cmpd 1 at 4 μg/mL in combinations) | MIC (strain 1034962, Cmpd 1 at 4 μg/mL in combinations) | MIC (strain 1035144, Cmpd 1 at 4 μg/mL in combinations)
64 µg/mL: MIC (strain 996612, Cmpd 1 at 4 μg/mL in combinations) | MIC (strain 998898, Cmpd 1 at 4 μg/mL in combinations) | MIC (strain 1002247, Cmpd 1 at 4 μg/mL in combinations) | MIC (strain 1002952, Cmpd 1 at 4 μg/mL in combinations) | MIC (strain 1004867, Cmpd 1 at 4 μg/mL in combinations) | MIC (strain 1008756, Cmpd 1 at 4 μg/mL in combinations) | MIC (strain 1014815, Cmpd 1 at 4 μg/mL in combinations) | MIC (strain 1018801, Cmpd 1 at 4 μg/mL in combinations) | MIC (strain 1018802, Cmpd 1 at 4 μg/mL in combinations) | MIC (strain 1018806, Cmpd 1 at 4 μg/mL in combinations) | MIC (strain 1018851, Cmpd 1 at 4 μg/mL in combinations) | MIC (strain 1028193, Cmpd 1 at 4 μg/mL in combinations) | MIC (strain 1030928, Cmpd 1 at 4 μg/mL in combinations) | MIC (strain 1031167, Cmpd 1 at 4 μg/mL in combinations) | MIC (strain 1032761, Cmpd 1 at 4 μg/mL in combinations) | MIC (strain 1033979, Cmpd 1 at 4 μg/mL in combinations) | MIC (strain 1034916, Cmpd 1 at 4 μg/mL in combinations)
8 µg/mL: MIC (strain 999306, Cmpd 1 at 4 μg/mL in combinations) | MIC (strain 1003557, Cmpd 1 at 4 μg/mL in combinations) | MIC (strain 1013022, Cmpd 1 at 4 μg/mL in combinations) | MIC (strain 1027234, Cmpd 1 at 4 μg/mL in combinations) | MIC (strain 1027603, Cmpd 1 at 4 μg/mL in combinations) | MIC (strain 1027748, Cmpd 1 at 4 μg/mL in combinations)
128 µg/mL: MIC
16 µg/mL: MIC (strain 990089, Cmpd 1 at 4 μg/mL in combinations) | MIC (strain 994180, Cmpd 1 at 4 μg/mL in combinations) | MIC (strain 994181, Cmpd 1 at 4 μg/mL in combinations) | MIC (strain 995771, Cmpd 1 at 4 μg/mL in combinations) | MIC (strain 998107, Cmpd 1 at 4 μg/mL in combinations) | MIC (strain 998532, Cmpd 1 at 4 μg/mL in combinations) | MIC (strain 1001611, Cmpd 1 at 4 μg/mL in combinations) | MIC (strain 1002208, Cmpd 1 at 4 μg/mL in combinations) | MIC (strain 1002688, Cmpd 1 at 4 μg/mL in combinations) | MIC (strain 1003662, Cmpd 1 at 4 μg/mL in combinations) | MIC (strain 1005290, Cmpd 1 at 4 μg/mL in combinations) | MIC (strain 1008508, Cmpd 1 at 4 μg/mL in combinations) | MIC (strain 1010245, Cmpd 1 at 4 μg/mL in combinations) | MIC (strain 1011959, Cmpd 1 at 4 μg/mL in combinations) | MIC (strain 1013035, Cmpd 1 at 4 μg/mL in combinations) | MIC (strain 1013055, Cmpd 1 at 4 μg/mL in combinations) | MIC (strain 1013322, Cmpd 1 at 4 μg/mL in combinations) | MIC (strain 1014646, Cmpd 1 at 4 μg/mL in combinations) | MIC (strain 1016545, Cmpd 1 at 4 μg/mL in combinations) | MIC (strain 1023034, Cmpd 1 at 4 μg/mL in combinations) | MIC (strain 1023207, Cmpd 1 at 4 μg/mL in combinations) | MIC (strain 1023329, Cmpd 1 at 4 μg/mL in combinations) | MIC (strain 1024215, Cmpd 1 at 4 μg/mL in combinations) | MIC (strain 1026990, Cmpd 1 at 4 μg/mL in combinations) | MIC (strain 1026992, Cmpd 1 at 4 μg/mL in combinations) | MIC (strain 1029913, Cmpd 1 at 4 μg/mL in combinations) | MIC (strain 1030427, Cmpd 1 at 4 μg/mL in combinations) | MIC (strain 1031177, Cmpd 1 at 4 μg/mL in combinations) | MIC (strain 1031191, Cmpd 1 at 4 μg/mL in combinations) | MIC (strain 1032669, Cmpd 1 at 4 μg/mL in combinations) | MIC (strain 1033340, Cmpd 1 at 4 μg/mL in combinations) | MIC (strain 1034931, Cmpd 1 at 4 μg/mL in combinations)
4 µg/mL: MIC (strain 1018109, Cmpd 1 at 4 μg/mL in combinations)
